The values that follow come from patent US6643591B1, “Use of computational and experimental data to model organic compound reactivity in cytochrome P450 mediated reactions and to optimize the design of pharmaceuticals” (University of Pittsburgh, priority 1998, dated 2003).

Each structure is given as a SMILES string.

Data set [1] concerns CYP. Nature of the data set: Experimental product ratios for aromatic oxidation. The note with it: Arom/benz. The text has this:
These equations may be solved with the data in Table 4, which provides experimental data for aromatic oxidation reactions with a number of substrates.
Experimental metabolite ratios may also be used to parameterize the aromatic oxidation reaction in a theoretical model for CYP reactions. As with hydrogen atom abstraction discussed in the previous Examples, experimental ratios of aromatic oxidation to an alternate position may be determined using various CYP enzymes. These substrates were chosen based on their small size, the presence of an alternate position for metabolism, and their hydrophobicity.
In order for the substrates to be useful, the average of the rotation rates in the active sites should be rapid. […] Several human expressed CYP enzymes were used in these studies, including CYP1A1, 1A2, 2A6, 2B6, 2C8, 2C9, 2D6, 2E1, 3A4, and 3A5. The use of multiple enzymes insures that a reasonable average of any orientation preferences within the active site (see FIG. 1).

For data set [2], the target named is T1, CYP1A2 (Homo sapiens, UniProt P05177).
T1 sequence (P05177 1-516): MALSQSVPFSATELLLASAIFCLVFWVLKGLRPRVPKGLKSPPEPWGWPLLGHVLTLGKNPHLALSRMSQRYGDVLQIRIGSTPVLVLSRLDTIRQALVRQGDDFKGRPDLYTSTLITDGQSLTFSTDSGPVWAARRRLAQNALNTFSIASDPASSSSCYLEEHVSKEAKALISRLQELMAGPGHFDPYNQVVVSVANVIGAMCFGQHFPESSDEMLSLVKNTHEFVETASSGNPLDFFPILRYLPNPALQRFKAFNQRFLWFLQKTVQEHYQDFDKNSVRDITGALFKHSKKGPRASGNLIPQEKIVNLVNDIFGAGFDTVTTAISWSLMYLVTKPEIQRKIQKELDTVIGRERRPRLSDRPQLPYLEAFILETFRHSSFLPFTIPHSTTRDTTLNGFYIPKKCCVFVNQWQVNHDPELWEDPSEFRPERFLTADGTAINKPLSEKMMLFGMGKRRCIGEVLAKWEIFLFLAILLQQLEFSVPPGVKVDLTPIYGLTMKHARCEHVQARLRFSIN
The experiment in a line: in vitro.

Data set [3] deals with T2, CYP2B1 (Rattus norvegicus, UniProt P00176).
T2 sequence (P00176 1-491): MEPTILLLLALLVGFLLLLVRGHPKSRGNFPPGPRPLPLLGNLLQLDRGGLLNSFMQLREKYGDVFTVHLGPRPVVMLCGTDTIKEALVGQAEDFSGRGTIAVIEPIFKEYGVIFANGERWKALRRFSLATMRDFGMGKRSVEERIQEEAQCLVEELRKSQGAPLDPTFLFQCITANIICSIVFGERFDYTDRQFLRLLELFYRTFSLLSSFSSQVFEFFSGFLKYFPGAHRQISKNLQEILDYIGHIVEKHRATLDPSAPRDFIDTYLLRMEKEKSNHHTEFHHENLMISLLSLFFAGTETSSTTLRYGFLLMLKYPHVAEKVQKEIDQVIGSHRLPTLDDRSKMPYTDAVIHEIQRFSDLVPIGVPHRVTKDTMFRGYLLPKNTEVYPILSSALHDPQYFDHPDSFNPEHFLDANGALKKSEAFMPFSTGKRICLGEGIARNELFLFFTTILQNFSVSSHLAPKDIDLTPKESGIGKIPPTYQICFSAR
The experiment in a line: in vitro.

In data set [4] the target is CYP4B1 (Oryctolagus cuniculus, UniProt P15128). The experiment in a line: in vitro.
CYP4B1, sequence (P15128 whole entry, canonical isoform): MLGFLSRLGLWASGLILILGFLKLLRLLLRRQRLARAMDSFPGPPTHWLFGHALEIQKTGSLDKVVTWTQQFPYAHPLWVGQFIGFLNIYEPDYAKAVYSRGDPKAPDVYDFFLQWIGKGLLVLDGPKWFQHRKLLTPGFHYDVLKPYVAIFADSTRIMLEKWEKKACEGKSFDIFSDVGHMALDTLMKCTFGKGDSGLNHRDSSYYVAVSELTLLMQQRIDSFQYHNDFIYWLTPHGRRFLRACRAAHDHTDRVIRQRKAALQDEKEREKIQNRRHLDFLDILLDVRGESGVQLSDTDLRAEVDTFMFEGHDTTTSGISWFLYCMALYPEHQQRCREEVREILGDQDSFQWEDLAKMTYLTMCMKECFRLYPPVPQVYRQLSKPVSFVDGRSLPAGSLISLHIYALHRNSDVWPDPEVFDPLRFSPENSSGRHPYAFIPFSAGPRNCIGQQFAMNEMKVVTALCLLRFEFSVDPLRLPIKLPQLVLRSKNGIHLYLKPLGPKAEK
In data set [5] the test system is CYP1A2, CYP2B1, CYP2E1. Nature of the data set: in vitro. The note with it: pH 7.4, Regioselectivity BzH:Arom, range, isoforms 1A2, 2B1 and 2E1.
The test system of data set [6] is CYP2B6, CYP2C9, CYP4B1. Nature of the data set: in vitro. The note with it: pH 7.4, Regioselectivity BzH:Arom, range, isoforms 2B6, 2C9 and 4B1.
Data set [7] has as its system multiple CYP isoforms. The experiment in a line: in vitro. The note with it: pH 7.4, Regioselectivity BzH:ODAlk, range, range over the isoforms.
In data set [8] the target is CYP2E1 (Homo sapiens, UniProt P05181). Nature of the data set: Regioselectivity and inter-/intramolecular KIE for 4-methylanisole (Table 15). The class given is in vitro ADME.
CYP2E1, sequence (P05181 whole entry): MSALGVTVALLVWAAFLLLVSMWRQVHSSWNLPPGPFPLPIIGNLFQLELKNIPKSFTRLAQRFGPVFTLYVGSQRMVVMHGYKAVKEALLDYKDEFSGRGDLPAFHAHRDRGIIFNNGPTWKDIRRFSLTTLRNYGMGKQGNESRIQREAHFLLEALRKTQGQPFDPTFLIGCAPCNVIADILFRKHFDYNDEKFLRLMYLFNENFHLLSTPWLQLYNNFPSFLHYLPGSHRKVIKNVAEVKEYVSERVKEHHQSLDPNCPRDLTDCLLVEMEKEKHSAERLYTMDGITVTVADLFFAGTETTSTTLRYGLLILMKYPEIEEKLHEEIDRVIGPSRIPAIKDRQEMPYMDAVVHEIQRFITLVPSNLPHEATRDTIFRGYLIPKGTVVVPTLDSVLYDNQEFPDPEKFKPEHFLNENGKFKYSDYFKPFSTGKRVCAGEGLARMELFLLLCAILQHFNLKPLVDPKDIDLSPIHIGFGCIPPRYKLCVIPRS
Data set [9] has as its target CYP3A4 (Homo sapiens, UniProt P08684). The description is as above. It counts as in vitro ADME.
In data set [10] the target is CYP2C9 (Homo sapiens, UniProt P11712). Described as above. It counts as in vitro ADME.
CYP2C9, sequence (P11712 whole entry): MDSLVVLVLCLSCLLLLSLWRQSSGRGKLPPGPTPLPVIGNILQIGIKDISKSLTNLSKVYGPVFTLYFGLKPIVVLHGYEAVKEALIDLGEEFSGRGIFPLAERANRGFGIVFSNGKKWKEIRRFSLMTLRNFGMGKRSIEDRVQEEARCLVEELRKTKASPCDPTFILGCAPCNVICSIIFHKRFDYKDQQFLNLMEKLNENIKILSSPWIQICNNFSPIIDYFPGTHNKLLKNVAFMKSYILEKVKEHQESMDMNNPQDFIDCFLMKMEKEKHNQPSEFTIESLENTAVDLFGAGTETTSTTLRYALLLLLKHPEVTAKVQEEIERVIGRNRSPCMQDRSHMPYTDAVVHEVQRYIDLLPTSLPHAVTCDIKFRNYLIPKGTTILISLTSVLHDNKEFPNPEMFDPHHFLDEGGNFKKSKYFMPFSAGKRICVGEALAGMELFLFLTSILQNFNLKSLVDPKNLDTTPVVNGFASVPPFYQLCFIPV
In data set [11] the target is T3, CYP1A1 (Homo sapiens, UniProt P04798).
T3 sequence (P04798 1-512): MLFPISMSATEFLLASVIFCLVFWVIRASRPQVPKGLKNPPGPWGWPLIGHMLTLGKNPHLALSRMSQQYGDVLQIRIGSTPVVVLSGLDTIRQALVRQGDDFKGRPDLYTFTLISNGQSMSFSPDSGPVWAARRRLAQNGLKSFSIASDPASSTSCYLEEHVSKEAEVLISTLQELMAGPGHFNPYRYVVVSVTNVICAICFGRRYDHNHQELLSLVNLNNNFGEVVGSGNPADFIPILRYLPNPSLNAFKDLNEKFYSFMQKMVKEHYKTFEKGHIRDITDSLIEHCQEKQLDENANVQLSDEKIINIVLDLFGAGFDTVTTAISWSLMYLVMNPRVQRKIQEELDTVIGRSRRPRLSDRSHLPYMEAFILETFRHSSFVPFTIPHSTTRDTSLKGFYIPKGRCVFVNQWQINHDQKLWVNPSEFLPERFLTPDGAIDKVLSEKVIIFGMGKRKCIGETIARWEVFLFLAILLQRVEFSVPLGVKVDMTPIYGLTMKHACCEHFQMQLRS

For data set [12], the system named is various CYP enzymes. The note with it: mean over seven enzymes.
Where [13] appears, read: pH 7.4, Regioselectivity BzH:Arom.
[14] abbreviates: pH 7.4, Regioselectivity BzH:ODAlk.

CYP3A4, sequence (P08684 whole entry): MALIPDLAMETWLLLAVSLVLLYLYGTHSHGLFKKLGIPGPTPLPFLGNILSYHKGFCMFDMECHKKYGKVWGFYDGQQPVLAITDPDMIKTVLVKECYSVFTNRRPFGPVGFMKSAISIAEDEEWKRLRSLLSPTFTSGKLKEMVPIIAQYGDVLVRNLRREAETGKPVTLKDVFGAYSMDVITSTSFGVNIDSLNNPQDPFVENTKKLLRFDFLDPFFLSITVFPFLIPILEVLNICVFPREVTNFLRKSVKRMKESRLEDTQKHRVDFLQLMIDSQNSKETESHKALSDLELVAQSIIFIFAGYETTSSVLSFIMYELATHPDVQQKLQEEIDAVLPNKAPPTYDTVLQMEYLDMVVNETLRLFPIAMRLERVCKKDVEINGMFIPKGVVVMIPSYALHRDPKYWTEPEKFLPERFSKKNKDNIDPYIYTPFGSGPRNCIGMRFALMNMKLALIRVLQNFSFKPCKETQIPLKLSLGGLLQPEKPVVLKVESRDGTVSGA

With `COc1ccccc1C` [o-Methylanisole, o-methylanisole], in data set [1], the “Experimental Ratio” value was 1.76. Also, the selectivity ratio in data set [2] (setting [13]) came to 0.63; in data set [2] (setting [14]) it was 2.9; in [3] (setting [13]) it was 0.31; in data set [3] (setting [14]), 1.2; in data set [4] (setting [13]), 22; in [4] (setting [14]), 0.7. Also, the values for the selectivity ratio at 20 min, […] in [5], in data set [6] and in [7] were 0.3 to 0.6, 1.6 to 22 and 1.2 to 3, respectively.
With `COc1ccc(C)cc1` [p-Methylanisole, p-methylanisole], the “Intermolecular KIE” value in data set [8] (CYP2E1 (Table 15)) is reported as 6.53; in data set [9] (CYP3A4 (Table 15)) it was 2.76; in [10] (CYP2C9 (Table 15)), 3.52; in data set [11] (CYP1A1 (Table 15)) it was 2.17. For the same molecule, the “Intramolecular KIE” value in [8] (CYP2E1 (Table 15)) turned out to be 4.02; in data set [9] (CYP3A4 (Table 15)) it was 5.27; in data set [10] (CYP2C9 (Table 15)) it was 3.92; in data set [11] (CYP1A1 (Table 15)) it was 4.23. The “δΔG^†” value in data set [8] (CYP2E1, benzylic oxidation vs O-dealkylation) is 1.06 kcal/mol; in data set [9] (CYP3A4, benzylic oxidation vs O-dealkylation) it was 1.61 kcal/mol; in data set [10] (CYP2C9, benzylic oxidation vs O-dealkylation), 1.87 kcal/mol; in data set [11] (CYP1A1, benzylic oxidation vs O-dealkylation), 1.12 kcal/mol. The “Benzylic/O-Dealkylation, Mean” value in data set [12] is 10.60 (5.85). Moreover, the “Intermolecular KIE, Mean” value in data set [12] came out at 4.59. For the same molecule, the “Intramolecular KIE, Mean” value in [12] is given as 4.20.
